Test results from US20250129021A1, “SMALL MOLECULE PROTEIN SYNTHESIS MODULATORS” (Interdict Bio, Inc., priority 2023, published 2025).
Where two headings read alike, the source gives them in different places.

How the values were obtained:
MCF7 = experiment: Cell viability (CellTiter-Fluor), MCF7; assay type: cell-based; details: Homo sapiens, 24-72 hrs
Description: (§1) Count and dispense 2,000-10,000 cells per well (100 μL volume) in black 96-well tissue culture microplate and let cells adhere overnight. Add compound dissolved in 100% DMSO to each well as needed and incubate cells in standard culture conditions for 24-72 hrs. Final DMSO concentration in each well should be 0.1-0.5%. At the desired time point, gently aspirate compound containing media and replace with PBS to wash. Repeat wash step for 2 total washes. Remove PBS and add 100 μL CellTiter-Fluor reagent (Promega) reagent to each well. Seal plate and incubate 1 hr at room temperature with orbital shaking. Analyze fluorescence using plate reader to quantify viable cells compared with vehicle (DMSO) control.

HEK 293T = experiment: Cell viability (CellTiter-Fluor), HEK 293T; assay type: cell-based; details: Homo sapiens, 24-72 hrs
Description: as §1

MYC = experiment: In vitro transcription-translation (IVTT) assay, MYC reporter; assay type: biochemical; details: HeLa S3 lysate, 2 hrs at 30° C.
Summary of the method: (§2)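 Reporter: mCherry, P2A, then 3×FLAG-target peptide-sfGFP fusion, IRES-initiated; HeLa S3 lysate IVTT; cpd dilutions 30 μM−0.1 μM half-log in 100% DMSO (dilution-plate conc); DNA added last; 2 h, 30° C; PBS quench.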

MCL-1 = experiment: In vitro transcription-translation (IVTT) assay, MCL-1 reporter; assay type: biochemical; details: HeLa S3 lysate, sfGFP/mCherry ratio
Summary of the method: as §2

CCND1 = experiment: In vitro transcription-translation (IVTT) assay, CCND1 reporter; assay type: biochemical; details: HeLa S3 lysate, sfGFP/mCherry ratio, 2 hrs at 30° C.
Summary of the method: as §2

BCL-2 = experiment: In vitro transcription-translation (IVTT) assay, BCL-2 reporter; assay type: biochemical; details: HeLa S3 lysate, sfGFP/mCherry ratio, 2 hrs at 30° C.
Excerpt: All reporter constructs have been cloned into the pT7CFE1-CHis plasmid (ThermoFisher #88860) using Gibson assembly procedures (NEB #E2611L). The parental pT7CFE1-CHis plasmid contains an EMCV IRES at the 5′UTR for translation initiation, a multiple-cloning site (MCS) for gene insertion, an optional C-terminal His-epitope tag, and polyA sequence in the 3′UTR to regulate mRNA stability. All reporters are designed to be inserted at the MCS to include a red fluorescent protein (mCherry), P2A self-cleaving peptide which releases the preceding mCherry protein product, and a fusion open reading frame containing a 3×FLAG epitope, a peptide sequence of interest (TEST), and green fluorescent protein (sfGFP).
Construct Plasmid Preparation: All plasmids are isolated from MACH1 cells (ThermoFisher) grown overnight in ampicillin-containing luria broth, and purified using ZymoPure Express Plasmid Midiprep Kit (Zymo Research). Constructs are sequenced verified and diluted to a working concentration of 110 ng/μL.
HeLa S3 Lysate Preparation: HeLa S3 cell pellets are acquired from Ipracell/Ipratech (Belgium) and shipped as 4 mL frozen cell pellets on dry ice for storage at −80° C. until use. The procedure for lysate preparation is as follows. Prepare 1× Lysis Buffer, cold and stored on ice:
Each preparation takes 8 cell pellets (4 ml packed volume each, approximately 1.0×10^9 cells per pellet). Thaw cell pellets from −80° C. on ice for 90 mins. Lay pellets horizontally on top of the ice and rotate every 30 mins to ensure even thawing. Once thawed, add 4 mL of cold lysis buffer to each pellet, and using a serological pipet, gently pipet up and down to break up clumps. Incubate resuspended cells in ice for an additional 30 mins (plunged into ice). During 30 min incubation, rinse and RNase-zap (Ambion) glass dounces (use loose pestle “A”), gently dry and place on ice until needed. Prepare RNase-free Eppendorf tubes for spinning and for batch storage. Add batch labels to 1.5-1.7 mL RNase-free microcentrifuge tubes (labeling scheme below). Each batch will have an extra 1.5-1.7 mL RNase-free microcentrifuge tube for 40 μL of lysate, label the top of this tube (labeling scheme below). After 30 min incubation, transfer all 8 mL of cell pellet to dounce. Cell lysis is complete after douncing 100 times. Aliquot cell lysis into 1.5-1.7 mL temporary-microcentrifuge tubes. Place tubes in centrifuge with “fins” out, and spin at 1,200×g for 5 mins. After the first spin use a 1 mL pipet to resuspend each tube and repeat spin. This acts as an additional lysis step, is more vigorous and increases lysate yield. During second spin get liquid N2 and a fresh conical tube on ice. After spin is complete, transfer supernatant (lysate) from microcentrifuge tubes into the 50 mL conical tube and keep on ice. Repeat steps 10-14 for all other cell pellets until completed. Once all cell lysate has been transferred to the 50 mL conical tube pipet to mix so the solution is homogenous. Transfer 1 mL of lysate into batch-labeled microcentrifuge tubes and flash freeze in liquid nitrogen. Be sure to pipet up and down to mix throughout transfer step. Place all tubes in the […] for long-term storage.
In vitro transcription-translation assay setup: Each assay includes a master mix containing lysate and shared components, a 96-well plate containing compound titrations for testing, a 96-well DNA plate with reporter constructs to be tested, 96-well skirted PCR plates, and 96-well flat-bottom, black, fluorescent assay plates. […]

ALK = experiment: In vitro transcription-translation (IVTT) assay, ALK reporter; assay type: biochemical; details: HeLa S3 lysate, sfGFP/mCherry ratio, 2 hrs at 30° C.
Summary of the method: as §2

CCNE1 = experiment: In vitro transcription-translation (IVTT) assay, CCNE1 reporter; assay type: biochemical; details: HeLa S3 lysate, sfGFP/mCherry ratio
Description: In vitro transcription-translation assay setup: Each assay includes a master mix containing lysate and shared components, a 96-well plate containing compound titrations for testing, a 96-well DNA plate with reporter constructs to be tested, 96-well skirted PCR plates, and 96-well flat-bottom, black, fluorescent assay plates. Reaction materials setup: (A) Master mix—15 mL conical tube (3 mL of HeLa S3 Lysate described above; 0.6 mL of ThermoFisher Accessory Proteins (#88882); 1.2 ml of ThermoFisher Reaction Mix (#88882); 0.54 mL of nuclease-free Water); (B) 96-Well Master Mix+Compound Plate (Half-log dilutions (30 μM−0.1 μM) of 4 compounds of interest are prepared in 100% DMSO); 96-Well DNA Plate (Five DNA constructs are plated into single columns within the plate. Row 1 of the column contains nuclease free H2O, all other wells contain 110 ng/μL plasmid DNA). Reactions are started by mixing 155 μL of master mix and 3.5 μL of compound serial dilutions, then 9.1 μL of master mix+compound mixture is aliquoted across 5 96-well plates. Reactions begin with final addition of 2 μL of DNA for a 11.1 μL reaction volume in each well. The entire plate is sealed, and incubated for 2 hrs at 30° C. After 2 hrs, quench the assay using 45 μL of PBS, and transfer 50 μL to a flat-bottom black microplate Quantify the sfGFP and mCherry signals from each well on each plate, taking 3 reads of each plate, and perform data analysis below.
In vitro transcription-translation assay data analysis: Each plate is read three times in channels for both sfGFP and mCherry signals. The average signal across these 3 reads is then calculated for further analysis. Control wells containing no DNA reporter are subtracted from reporter wells in the same column to remove auto-fluorescence of the lysate. Then, the ratio of sfGFP/mCherry is calculated per well, and these ratios are averaged across the triplicate experiments on the same plate. Finally, the ratio of each titration concentration is normalized to the no drug control to create the normalized stalling metric. The error on this measurement is determined by propagating error through the averaging and normalization steps. Values are plotted and fit for IC50 determination for each test sequence and titration of compound.

[1] = IVTT assay, MYC reporter, normalized sfGFP/mCherry ratio, half-log dilutions 30 μM-0.1 μM
[2] = IVTT assay, read-out: MCL1 IC50

| Structure (SMILES) | IC50 (MCF7) | IC50 (MYC; sfGFP/mCherry ratio) | IC50 (MCL-1; 2 hrs at 30° C.) | IC50 (CCND1) | IC50 (BCL-2) | IC50 (ALK) | IC50 (CCNE1) | IC50 (MCL-1; [2]) | IC50 (HEK 293T) | IC50 (MYC; [1]) |
| --- | --- | --- | --- | --- | --- | --- | --- | --- | --- | --- |
| COc1ccc(C[C@H]2NC[C@H](O)[C@H]2OC(=O)NCCc2ccncc2C#N)cc1 [V187940, (2R,3S,4S)-4-hydroxy-2-[(4-methoxyphenyl)methyl]pyrrolidin-3-yl N-[2-(3-cyanopyridin-4-yl)ethyl]carbamate] | 1 to 4 µM | < 10 µM | < 10 µM | < 10 µM | < 10 µM |  |  |  | 0.25 to 1 µM |  |
| COc1ccc(C[C@H]2NC[C@H](O)[C@H]2OC(=O)NCCNc2ncc[nH]2)cc1 [V187825, (2R,3S,4S)-4-hydroxy-2-[(4-methoxyphenyl)methyl]pyrrolidin-3-yl N-[2-(1H-imidazol-2-ylamino)ethyl]carbamate] | ≥ 4 µM | 20 to 30 µM | 10 to 20 µM | 10 to 20 µM | 20 to 30 µM |  |  |  | ≥ 4 µM |  |
| COc1ccc(C[C@H]2NC[C@H](O)[C@H]2OC(=O)NCCNc2nccs2)cc1 [V187826, (2R,3S,4S)-4-hydroxy-2-[(4-methoxyphenyl)methyl]pyrrolidin-3-yl N-[2-(1,3-thiazol-2-ylamino)ethyl]carbamate] | 1 to 4 µM | < 10 µM | 10 to 20 µM | 20 to 30 µM | 20 to 30 µM |  |  |  | 1 to 4 µM |  |
| COc1ccc(C[C@H]2NC[C@H](O)[C@H]2OC(=O)NCCn2ccnc2)cc1 [V187819, (2R,3S,4S)-4-hydroxy-2-[(4-methoxyphenyl)methyl]pyrrolidin-3-yl N-[2-(imidazol-1-yl)ethyl]carbamate] | 1 to 4 µM | < 10 µM | < 10 µM | < 10 µM |  | < 10 µM |  |  | ≥ 4 µM |  |
| COc1ccc(C[C@H]2NC[C@H](O)[C@H]2OC(=O)NCCc2cnn[nH]2)cc1 [Cmpd V187783] | 1 to 4 µM | < 10 µM | < 10 µM |  | < 10 µM |  |  |  | 0.25 to 1 µM |  |
| COc1ccc(C[C@H]2NC[C@H](O)[C@H]2OC(=O)NCCc2cnc(N)[nH]2)cc1 [Cmpd V187594] | 1 to 4 µM | < 10 µM | < 10 µM | < 10 µM |  |  |  |  | ≥ 4 µM |  |
| COc1ccc(C[C@H]2NC[C@H](O)[C@H]2OC(=O)NCC[C@H]2CCNC2)cc1 [Cmpd V187879] | 1 to 4 µM | < 10 µM | < 10 µM | < 10 µM | 10 to 20 µM |  |  |  | ≥ 4 µM |  |
| COc1ccc(C[C@H]2NC[C@H](O)[C@H]2OC(=O)NCCc2nc[nH]c2C)cc1 [V187823, (2R,3S,4S)-4-hydroxy-2-[(4-methoxyphenyl)methyl]pyrrolidin-3-yl N-[2-(5-methyl-1H-imidazol-4-yl)ethyl]carbamate] |  | < 10 µM | < 10 µM | 10 to 20 µM | 10 to 20 µM |  |  |  | ≥ 4 µM |  |
| COc1ccc(C[C@H]2NC[C@H](O)[C@H]2OC(=O)NCCNc2cc[nH]n2)cc1 [V187827, (2R,3S,4S)-4-hydroxy-2-[(4-methoxyphenyl)methyl]pyrrolidin-3-yl N-[2-(1H-pyrazol-3-ylamino)ethyl]carbamate] |  | < 10 µM | < 10 µM | < 10 µM | 10 to 20 µM |  |  |  | ≥ 4 µM |  |

Further lines, with some results ahead:

| IC50 (MCF7) | IC50 (MYC; sfGFP/mCherry ratio) | IC50 (MCL-1; 2 hrs at 30° C.) | IC50 (CCND1) | IC50 (BCL-2) | IC50 (ALK) | IC50 (CCNE1) | IC50 (MCL-1; [2]) | Structure (SMILES) | IC50 (HEK 293T) | IC50 (MYC; [1]) |
| --- | --- | --- | --- | --- | --- | --- | --- | --- | --- | --- |
| 1 to 4 µM |  | < 10 µM | 10 to 20 µM | 10 to 20 µM |  |  |  | CNC(=O)CNC(=O)O[C@@H]1[C@@H](O)CN[C@@H]1Cc1ccc(OC)cc1 [V188017, (2R,3S,4S)-4-hydroxy-2-[(4-methoxyphenyl)methyl]pyrrolidin-3-yl N-[(methylcarbamoyl)methyl]carbamate] | 1 to 4 µM |  |
|  |  |  |  |  |  | < 10 µM | < 10 µM | O=C(NCC[C@@H]1CCN1)O[C@@H]1[C@@H](O)CN[C@@H]1Cc1ccc(OC(F)F)cc1 [V192938, (2R,3S,4S)-2-{[4-(difluoromethoxy)phenyl]methyl}-4-hydroxypyrrolidin-3-yl N-{2-[(2S)-azetidin-2-yl]ethyl}carbamate] |  | < 10 µM |
|  |  |  |  |  |  | < 10 µM | < 10 µM | O=C(NCC[C@H]1CC2(CC2)CN1)O[C@@H]1[C@@H](O)CN[C@@H]1Cc1ccc(-c2cnco2)cc1 [V193018, (2R,3S,4S)-4-hydroxy-2-(4-(oxazol-5-yl)benzyl)pyrrolidin-3-yl (2-((R)-5-azaspiro[2.4]heptan-6-yl)ethyl)carbamate] |  | < 10 µM |
|  |  |  |  |  |  | < 10 µM | 10 to 20 µM | O=C(NCC[C@@H]1CCNC1)O[C@@H]1[C@@H](O)CN[C@@H]1Cc1ccc(C(F)F)cc1 [V193010, (2R,3S,4S)-2-(4-(difluoromethyl)benzyl)-4-hydroxypyrrolidin-3-yl (2-((S)-pyrrolidin-3-yl)ethyl)carbamate] |  | < 10 µM |
|  |  |  |  |  |  | < 10 µM | < 10 µM | O=C(NCC[C@@H]1CCN1)O[C@@H]1[C@@H](O)CN[C@@H]1Cc1ccc(C(F)F)cc1 [V193008, (2R,3S,4S)-2-{[4-(difluoromethyl)phenyl]methyl}-4-hydroxypyrrolidin-3-yl N-{2-[(2S)-azetidin-2-yl]ethyl}carbamate] |  | < 10 µM |
